# Results: US20190119284A1, “ErbB Inhibitors and Uses Thereof” (The Regents of the University of California, priority 2016, published 2019)
# Key:
# LCK = LCK (Homo sapiens, UniProt P06239); test: Nanosyn in vitro kinase profiling: LCK; type: biochemical; details: for inhibition at 1 µM: compound at 1 μM
# Description: (§1) This was confirmed by in vitro profiling against a panel of kinases, with compound 2 only showing potent inhibition of EGFR and Ab1 (Table 2).
# (§2) In vitro Kinome Screen. In vitro profiling of compound 2 at 100 nM was conducted by Nanosyn.
# ROCK1 = ROCK1 (Homo sapiens, UniProt Q13464); test: Nanosyn in vitro kinase profiling: ROCK1; type: biochemical; details: for inhibition at 1 µM: compound at 1 μM
# Description: as §1, §2
# ITK = biological target: T1, ITK (Homo sapiens, UniProt Q08881); test: Nanosyn in vitro kinase profiling: ITK; type: biochemical; details: for inhibition at 1 µM: compound at 1 μM
# T1 sequence (Q08881 1-620): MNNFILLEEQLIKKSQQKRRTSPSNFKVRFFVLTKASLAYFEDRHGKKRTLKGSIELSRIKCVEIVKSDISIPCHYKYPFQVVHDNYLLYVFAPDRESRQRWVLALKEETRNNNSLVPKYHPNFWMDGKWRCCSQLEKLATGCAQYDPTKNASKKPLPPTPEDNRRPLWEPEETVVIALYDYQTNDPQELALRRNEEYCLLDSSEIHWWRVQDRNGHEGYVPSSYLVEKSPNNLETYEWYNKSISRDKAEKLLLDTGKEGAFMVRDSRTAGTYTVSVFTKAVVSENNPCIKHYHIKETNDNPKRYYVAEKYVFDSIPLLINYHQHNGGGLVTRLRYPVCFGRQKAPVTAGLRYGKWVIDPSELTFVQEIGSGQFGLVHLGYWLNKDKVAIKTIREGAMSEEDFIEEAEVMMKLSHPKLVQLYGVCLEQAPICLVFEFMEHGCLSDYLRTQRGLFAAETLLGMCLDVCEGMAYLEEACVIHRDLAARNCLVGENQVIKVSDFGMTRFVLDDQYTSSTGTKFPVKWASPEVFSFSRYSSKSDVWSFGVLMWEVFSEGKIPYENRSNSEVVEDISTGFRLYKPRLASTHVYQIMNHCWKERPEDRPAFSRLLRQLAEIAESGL
# Description: as §1, §2
# CK1-EPSILON = CK1-EPSILON (Homo sapiens, UniProt P49674); test: Nanosyn in vitro kinase profiling: CK1-EPSILON; type: biochemical; details: for inhibition at 1 µM: compound at 1 μM
# Description: as §1, §2
# CSK = CSK (Homo sapiens, UniProt P41240); test: Nanosyn in vitro kinase profiling: CSK; type: biochemical; details: for inhibition at 1 µM: compound at 1 μM
# Description: as §1, §2
# CHEK1 = biological target: T2, CHEK1 (Homo sapiens, UniProt O14757); test: Nanosyn in vitro kinase profiling: CHEK1; type: biochemical; details: for inhibition at 1 µM: compound at 1 μM
# T2 sequence (O14757 1-476): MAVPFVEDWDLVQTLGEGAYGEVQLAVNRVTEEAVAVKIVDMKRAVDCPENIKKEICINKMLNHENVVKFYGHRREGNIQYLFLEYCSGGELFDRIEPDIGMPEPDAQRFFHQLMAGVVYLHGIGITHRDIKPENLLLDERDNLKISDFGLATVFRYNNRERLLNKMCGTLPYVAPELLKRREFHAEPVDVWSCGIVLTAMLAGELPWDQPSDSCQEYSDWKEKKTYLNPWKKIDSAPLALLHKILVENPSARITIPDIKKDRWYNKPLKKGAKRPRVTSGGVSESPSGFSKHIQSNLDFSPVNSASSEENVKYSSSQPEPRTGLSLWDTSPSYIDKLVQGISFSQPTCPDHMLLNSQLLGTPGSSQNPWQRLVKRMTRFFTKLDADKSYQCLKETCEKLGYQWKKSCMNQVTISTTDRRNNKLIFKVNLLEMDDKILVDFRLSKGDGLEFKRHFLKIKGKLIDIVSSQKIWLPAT
# Description: as §1, §2
# [1] = test system: HER2 and HER3 signaling in NCI-H1781 cells; test: HER2 and HER3 signaling in NCI-H1781 cells (immunoblot); type: cell-based; details: NCI-H1781 cells (HER2 kinase domain insertion); 15 min after drug
# Description: Immunoblotting. Cells were grown in 6 well plates and treated according to the indicated conditions at which point the media was aspirated, cells were washed with 1 mL of cold PBS, which was then aspirated and the plates were frozen at −80° C. The frozen cells were thawed on the plates in a buffer containing 50 mM Tris pH 7.5, 150 mM NaCl, 1 mM EDTA, and 1% Triton X-100 supplemented with 1× phosphatase (PhoSTOP, Roche) and 1× protease (complete-mini tablets, Roche) inhibitors. Lysates were scraped, transferred to Eppendorf tubes, and cleared by centrifugation at 20,000×g for 20 min at 4° C. The clarified lysates were transferred to chilled, clean tubes, and normalized for protein concentration by Bradford (Bio-Rad). The normalized lysates were diluted with Laemmli loading buffer, and 10 μg of total protein was run on a 4-12% gradient gel (Invitrogen), which was then transferred to […] nitrocellulose (Bio-Rad) and analyzed using the indicated primary antibodies according to the manufacturer's recommendations. Primary antibodies were detected using IRDye secondary antibodies (Li-Cor) according to the manufacturer's recommendations and scanned on an Odyssey imager (Li-Cor). Scanned images were cropped and assembled in Adobe Illustrator 6.
# LCK, sequence (P06239 whole entry): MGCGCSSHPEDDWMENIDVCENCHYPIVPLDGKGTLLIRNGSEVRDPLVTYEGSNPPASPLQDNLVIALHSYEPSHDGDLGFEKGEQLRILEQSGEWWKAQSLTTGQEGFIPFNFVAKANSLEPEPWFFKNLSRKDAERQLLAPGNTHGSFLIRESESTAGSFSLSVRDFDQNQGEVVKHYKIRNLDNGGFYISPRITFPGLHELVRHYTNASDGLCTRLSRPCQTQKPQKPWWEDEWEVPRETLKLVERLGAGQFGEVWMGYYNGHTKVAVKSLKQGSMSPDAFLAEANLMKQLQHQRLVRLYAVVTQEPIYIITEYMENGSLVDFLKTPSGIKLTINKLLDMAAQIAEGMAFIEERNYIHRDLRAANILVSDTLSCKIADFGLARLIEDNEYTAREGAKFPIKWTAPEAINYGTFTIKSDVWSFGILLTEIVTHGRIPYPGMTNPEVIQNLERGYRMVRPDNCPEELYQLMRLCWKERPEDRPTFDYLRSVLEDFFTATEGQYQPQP
# CK1-EPSILON, sequence (P49674 whole entry): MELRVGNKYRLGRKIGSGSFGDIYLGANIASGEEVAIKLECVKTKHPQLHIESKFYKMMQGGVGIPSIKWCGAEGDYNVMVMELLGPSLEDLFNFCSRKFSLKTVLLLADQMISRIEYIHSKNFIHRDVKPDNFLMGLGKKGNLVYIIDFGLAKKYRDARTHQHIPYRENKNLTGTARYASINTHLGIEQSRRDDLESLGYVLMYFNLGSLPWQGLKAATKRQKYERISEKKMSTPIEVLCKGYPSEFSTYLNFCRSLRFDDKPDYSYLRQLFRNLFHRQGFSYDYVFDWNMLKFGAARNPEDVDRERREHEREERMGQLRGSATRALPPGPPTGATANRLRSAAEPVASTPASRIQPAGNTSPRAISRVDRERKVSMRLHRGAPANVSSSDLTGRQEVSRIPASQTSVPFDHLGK
# ROCK1, sequence (Q13464 whole entry, species assumed): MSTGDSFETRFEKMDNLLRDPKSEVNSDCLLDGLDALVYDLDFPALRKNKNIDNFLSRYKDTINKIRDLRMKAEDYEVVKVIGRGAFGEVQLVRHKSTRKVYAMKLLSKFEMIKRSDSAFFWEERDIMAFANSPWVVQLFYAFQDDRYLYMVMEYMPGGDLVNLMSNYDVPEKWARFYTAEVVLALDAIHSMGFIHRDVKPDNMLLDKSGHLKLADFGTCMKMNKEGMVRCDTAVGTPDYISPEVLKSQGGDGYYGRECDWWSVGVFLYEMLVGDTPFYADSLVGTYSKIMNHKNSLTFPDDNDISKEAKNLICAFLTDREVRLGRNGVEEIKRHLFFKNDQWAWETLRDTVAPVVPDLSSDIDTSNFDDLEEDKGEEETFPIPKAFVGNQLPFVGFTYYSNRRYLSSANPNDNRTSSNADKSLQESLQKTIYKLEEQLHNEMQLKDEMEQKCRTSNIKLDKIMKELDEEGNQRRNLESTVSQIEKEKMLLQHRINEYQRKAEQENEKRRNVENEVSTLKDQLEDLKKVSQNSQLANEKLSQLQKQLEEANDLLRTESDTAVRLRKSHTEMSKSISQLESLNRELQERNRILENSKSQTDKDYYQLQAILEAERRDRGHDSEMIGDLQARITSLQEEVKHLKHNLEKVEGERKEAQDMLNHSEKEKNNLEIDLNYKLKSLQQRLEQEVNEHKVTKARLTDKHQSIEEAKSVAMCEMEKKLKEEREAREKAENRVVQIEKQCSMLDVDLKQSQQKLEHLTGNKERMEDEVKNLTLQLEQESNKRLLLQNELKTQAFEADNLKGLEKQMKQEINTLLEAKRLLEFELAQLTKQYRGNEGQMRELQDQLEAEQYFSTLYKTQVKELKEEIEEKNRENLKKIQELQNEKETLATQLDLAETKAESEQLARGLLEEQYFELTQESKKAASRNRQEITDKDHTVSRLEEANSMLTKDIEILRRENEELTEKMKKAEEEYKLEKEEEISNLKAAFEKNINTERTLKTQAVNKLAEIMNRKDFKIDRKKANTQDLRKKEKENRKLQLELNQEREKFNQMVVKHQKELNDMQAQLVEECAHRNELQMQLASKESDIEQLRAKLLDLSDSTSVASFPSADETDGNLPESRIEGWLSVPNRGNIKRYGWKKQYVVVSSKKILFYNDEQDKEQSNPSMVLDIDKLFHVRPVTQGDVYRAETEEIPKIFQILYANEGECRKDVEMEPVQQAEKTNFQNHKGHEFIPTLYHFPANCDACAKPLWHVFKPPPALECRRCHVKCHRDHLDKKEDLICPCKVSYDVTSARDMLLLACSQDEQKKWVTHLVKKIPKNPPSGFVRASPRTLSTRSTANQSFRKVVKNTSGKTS
inhibition at 1 µM (LCK),inhibition at 1 µM (ROCK1),inhibition at 1 µM (ITK),inhibition at 1 µM (CK1-EPSILON),inhibition at 1 µM (CSK),inhibition at 1 µM (CHEK1),inhibition at 0.1 µM (LCK; compound at 100 nM),inhibition at 0.1 µM (ROCK1; compound at 100 nM),inhibition at 0.1 µM (ITK; compound at 100 nM),inhibition at 0.1 µM (CK1-EPSILON; compound at 100 nM),inhibition at 0.1 µM (CSK; compound at 100 nM),inhibition at 0.1 µM (CHEK1; compound at 100 nM),Structure (SMILES),inhibition of HER2/HER3 signaling [1]
98%,16%,24%,11%,62%,10%,,,,,,,"COc1ccc(-c2ccoc2)cc1Nc1ncnc2[nH]cc(-c3cc[nH]n3)c12 [compound 3, N-(5-(furan-3-yl)-2-methoxyphenyl)-5-(1H-pyrazol-3-yl)-7H-pyrrolo[2,3-d]pyrimidin-4-amine]",rapidly and fully inhibited
93.6%,1.16%,13.9%,24.1%,24.8%,2.27%,74.2%,0.155%,1.24%,3.45%,6.96%,0.965%,"COc1ccc(-c2ccco2)cc1Nc1ncnc2[nH]nc(-c3ccco3)c12 [compound 2, 3-(furan-2-yl)-N-(5-(furan-2-yl)-2-methoxyphenyl)-1H-pyrazolo[3,4-d]pyrimidin-4-amine]",
,,,,,,,,,,,,CS(=O)(=O)CCNCc1ccc(-c2ccc3ncnc(Nc4ccc(OCc5cccc(F)c5)c(Cl)c4)c3c2)o1 [lapatinib],unable to fully inhibit signaling
